The target in data set [1] is PDC-3 (Pseudomonas aeruginosa, UniProt P24735, T105A). It is filed as biochemical.
For data set [2], the system named is O=C(Cc1cccs1)N[C@@H]1C(=O)N2C(C(=O)O)=C(/C=C/c3ccc([N+](=O)[O-])cc3[N+](=O)[O-])CS[C@H]12. Briefly: purified protein, by the assay type. The note with it: other: substrate; used to correct Ki; pH 7.4.
The test system of data set [3] is E.coli DH10B. Briefly: microbe, parasite or virus in culture. It is filed as cell-based. The note with it: Escherichia coli.
The test system of data set [4] is E.coli DH10B pBCSK- PDC-3. In words: MIC by agar dilution, cefotaxime alone or with boronate, strain producing PDC-3. It is filed as cell-based. The note with it: E. coli possessing the P. aeruginosa AmpC; BATSI added to cefotaxime. In general terms: In agar dilution, organisms are placed on agar that contains the substance at set levels.

For the compound `O=C(Cc1cccs1)N[C@@H](Cn1ccnn1)B(O)O` [Compound 13f, (1R)-2-([1,2,3]triazol-1-yl)-1-(2-thienylacetylamino)ethaneboronic acid], the “contribution of the methyltriazole to binding (ΔΔG)” value in data set [1] (13f compared with Ref Compound A, from Ki vs PDC-3) amounted to 0.5 kcal/mol.

In the case of P99 (Enterobacter cloacae), in data set [2], the Km was 20.03 ± 2.05 µM.

On to `O=C(Cc1cccs1)N[C@@H]1C(=O)N2C(C(=O)O)=C(/C=C/c3ccc([N+](=O)[O-])cc3[N+](=O)[O-])CS[C@H]12` [nitrocefin, reference compound], for which the Km in data set [1] (read-out: Km of nitrocefin, PDC-3, substrate, used to correct Ki) is 14.6 ± 2.2 µM.

In data set [3], `CO/N=C(\C(=O)N[C@@H]1C(=O)N2C(C(=O)O)=C(COC(C)=O)CS[C@H]12)c1csc(N)n1` [TAX, cefotaxime] had an MIC below 0.125 µg/mL.

Consider `O=C(Cc1cccs1)N[C@@H](Cn1cc(C(=O)O)nn1)B(O)O` [Compound 13a, (1R)-2-(4-Carboxy-[1,2,3]triazol-1-yl)-1-(2-thienylacetylamino)ethaneboronic acid], for which, in data set [1] (13a compared with 13f, from Ki vs PDC-3, ΔΔGbind = −RTln Ki ref/Ki), the “energetic contribution to binding of the carboxylate (ΔΔGbind)” value came out at 2.2 kcal/mol. Moreover, the “improvement in recognition caused by ring hopping (ΔΔG)” value in data set [1] (13a compared with Reference compound B) was found to be 0.7 kcal/mol. The “reduction in MIC of cefotaxime” value in data set [4] was “five dilution (2 log) reduction”.

What is called Km is the concentration of substrate that gives half-maximal velocity.

The values are drawn from article PMC5744665 (Journal of medicinal chemistry, 2015).
